{"source": "ChEMBL document CHEMBL5042524", "about": "“Discovery of Novel Histone Deacetylase 6 (HDAC6) Inhibitors with Enhanced Antitumor Immunity of Anti-PD-L1 Immunotherapy in Melanoma” (J Med Chem, 2022)", "key": {"[1]": {"experiment": "Oral bioavailability in Sprague-Dawley rat at 10 mg/kg measured upto 48 hrs by LC-MS/MS analysis", "assay_type": "ADME, organism-based", "details": "in vivo"}, "[2]": {"experiment": "Toxicity in C57BL/6 mouse allografted with B16-F10 cells assessed as body weight loss at 50 mg/kg, ip administered daily for 14 days", "assay_type": "organism-based", "details": "in vivo, 336 h, time 14 day"}, "[3]": {"experiment": "AUC (0 to infinity) in Sprague-Dawley rat at 2 mg/kg, iv measured upto 48 hrs by LC-MS/MS analysis", "assay_type": "ADME, organism-based", "design": "route intravenous, dose 2 mg/kg, time <=48", "details": "in vivo"}, "[4]": {"experiment": "Tmax in Sprague-Dawley rat at 10 mg/kg, po measured upto 48 hrs by LC-MS/MS analysis", "assay_type": "ADME, organism-based", "details": "in vivo"}, "B16-F10 [5]": {"tested_on": "B16-F10", "experiment": "Antitumor activity against mouse B16-F10 cells allografted in C57BL/6 mouse assessed as tumor growth inhibition at 10 mg/kg, ip administered daily for 14 days by caliper method (Rvb= 63%)", "assay_type": "functional", "details": "336 h, time 14 day, read-out: TGI"}, "[6]": {"experiment": "AUC(0 to t) in Sprague-Dawley rat at 2 mg/kg, iv measured upto 48 hrs by LC-MS/MS analysis", "assay_type": "ADME, organism-based", "design": "route intravenous, dose 2 mg/kg, time <=48", "details": "in vivo"}, "B16-F10 [7]": {"tested_on": "B16-F10", "experiment": "(§1) Antitumour activity against mouse B16-F10 cells allografted in C57BL/6 mouse model assessed as increase in CD3 positive/CD8 positive cells in tumor at 50 mg/kg, ip administered for 14 days by flow cytometry analysis (Rvb= 6.65%)", "assay_type": "functional", "details": "time 14 day"}, "[8]": {"experiment": "Potency index, ratio of CAY10603 IC50 to test compound IC50 for antiproliferative activity against human YCC3/7 cells assessed as cell growth inhibition", "assay_type": "functional"}, "B16-F10 [9]": {"tested_on": "B16-F10", "experiment": "Antitumour activity against mouse B16-F10 cells allografted in C57BL/6 mouse model assessed as increase in acetylated alpha tubulin expression level in tumor at 50 mg/kg, ip measured after 14 days by […] based microscopic analysis (Rvb =1.77%)", "assay_type": "functional", "details": "time 14 day"}, "B16-F10 [10]": {"tested_on": "B16-F10", "experiment": "as §1, with “days in presence of 2-(5-chloro-2-(3-cyanobenzyloxy)-4-((2-methylbiphenyl-3-yl)methoxy)benzylamino)-2-methylpropanoic acid” for “days”", "assay_type": "functional", "details": "time 14 day"}, "[11]": {"experiment": "AUC (0 to infinity) in Sprague-Dawley rat at 10 mg/kg, po measured upto 48 hrs by LC-MS/MS analysis", "assay_type": "ADME, organism-based", "design": "route oral, dose 10 mg/kg, time <=48", "details": "in vivo"}, "[12]": {"experiment": "MRT (0 to infinity) in Sprague-Dawley rat at 10 mg/kg, po measured upto 48 hrs by LC-MS/MS analysis", "assay_type": "ADME, organism-based", "details": "in vivo"}, "B16-F10 [13]": {"tested_on": "B16-F10", "experiment": "Antitumour activity against mouse B16-F10 cells allografted in C57BL/6 mouse model assessed as increase in CD3 positive/CD4 positive cells in tumor at 50 mg/kg, ip administered for 14 days in presence of 2-(5-chloro-2-(3-cyanobenzyloxy)-4-((2-methylbiphenyl-3-yl)methoxy)benzylamino)-2-methylpropanoic acid by flow cytometry analysis (Rvb= 8.73%)", "assay_type": "functional", "details": "time 14 day"}, "[14]": {"experiment": "Cmax in Sprague-Dawley rat at 10 mg/kg, po measured upto 48 hrs by LC-MS/MS analysis", "assay_type": "ADME, organism-based", "design": "route oral, dose 10 mg/kg, time <=48", "details": "in vivo"}}}
{"smiles": "COc1ccc(-c2ncc(C(=O)NCCCCCCC(=O)NO)s2)c(OC)c1", "values": [{"measurement": "bioavailability", "setting": "[1]", "result": 8.7, "unit": "%"}, {"measurement": "Activity", "setting": "[2]", "result": "Non-Toxic"}, {"measurement": "AUC(0-inf)", "setting": "[3]", "result": 319, "unit": "ng·h/mL"}, {"measurement": "Tmax", "setting": "[4]", "result": 5.3, "unit": "h"}, {"measurement": "inhibition in vivo at 10 mg/kg", "setting": "B16-F10 [5]", "result": 69, "unit": "%"}, {"measurement": "AUC(0-t) at 48 h", "setting": "[6]", "result": 318, "unit": "ng·h/mL"}, {"measurement": "Activity", "setting": "B16-F10 [7]", "result": 6.81, "unit": "%"}, {"measurement": "Ratio IC50", "setting": "[8]", "result": 12}, {"measurement": "Activity", "setting": "B16-F10 [9]", "result": 43.6, "unit": "%"}, {"measurement": "Activity", "setting": "B16-F10 [10]", "result": 16.5, "unit": "%"}, {"measurement": "AUC", "setting": "[11]", "result": 138.6, "unit": "ng·h/mL"}, {"measurement": "MRT inf", "setting": "[12]", "result": 8.5, "unit": "h"}, {"measurement": "Activity", "setting": "B16-F10 [13]", "result": 26.3, "unit": "%"}, {"measurement": "Cmax", "setting": "[14]", "result": 35, "unit": "ng/mL"}]}
